{
  "source": "patent US20260034253A1",
  "about": "“NECTIN-4 MINIPROTEIN CONJUGATES” (Aktis Oncology, Inc., priority 2022, published 2026)",
  "key": {"human Nectin-4": {"target": "T1, human Nectin-4 (Homo sapiens, UniProt Q96NY8)", "T1 sequence (Q96NY8 32-510)": "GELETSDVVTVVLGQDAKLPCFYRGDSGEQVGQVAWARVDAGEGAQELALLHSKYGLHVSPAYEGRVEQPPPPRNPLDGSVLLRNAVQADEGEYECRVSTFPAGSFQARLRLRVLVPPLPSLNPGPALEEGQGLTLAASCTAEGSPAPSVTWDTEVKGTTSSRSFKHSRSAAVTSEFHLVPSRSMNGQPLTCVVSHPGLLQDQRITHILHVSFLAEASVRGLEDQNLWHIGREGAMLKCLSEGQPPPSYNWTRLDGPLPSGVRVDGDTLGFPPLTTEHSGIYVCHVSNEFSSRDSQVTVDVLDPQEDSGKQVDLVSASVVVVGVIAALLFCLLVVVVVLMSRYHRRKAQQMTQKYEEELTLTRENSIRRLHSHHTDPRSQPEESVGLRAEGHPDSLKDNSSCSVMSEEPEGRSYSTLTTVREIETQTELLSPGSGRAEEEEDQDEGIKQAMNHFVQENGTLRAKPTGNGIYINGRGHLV", "assay": "Surface plasmon resonance (Biacore T200) binding to human Nectin-4", "settings": "human Nectin-4, 1:1 binding model, twenty-five degrees Celsius", "description": "(§1) Peptide binding affinity to the target protein was measured by SPR using a Biacore T200 instrument. The target protein was covalently coupled to a Biacore chip surface using free amine-coupling chemistry (NHS/EDC) and all uncoupled sites were blocked with ethanolamine. Free peptides were flowed over the target protein surface in increasing concentrations to measure association (KA) and dissociation ([…]) to calculate the equilibrium dissociation constant (KD) using an appropriate binding model (see, e.g., Nikolas Stroth, J Biol Methods. 2016; 3 (1)).\n(§2) In all figures (FIGS. 1A, 1B, 2A, and 2B), lines on graphs are labeled from top to bottom, beginning with letter “a,” and the corresponding concentration is noted to the right of the figure, next to the letter designating each line.\nSurface plasmon resonance (SPR) analyses were performed using Biacore T200 (GE Healthcare). Target protein (“ligand”) was immobilized to a CM5 Series S sensor chip (Cytiva) using amine-coupling chemistry. Running buffer was 0.05% Surfactant P20 in HEPES buffered saline (HBS-P), pH 7.4 (Cytiva). Immobilization was performed at 25° C. Carboxyl groups in each flow cell were activated using a 1:1 mixture of 0.4 M 1-ethyl-3-(3-dimethylaminopropyl)-carbodiimide in water (EDC) and 0.1 M N-hydroxysuccinimide in water (NHS) for 7 minutes. The ligand was prepared in 10 mM Sodium acetate pH 5 (Cytiva). Pulsatile injections were made to target a specific immobilization level. Any remaining amine-reactive esters on the chip surface were blocked with a 7-minute injection of 1 M ethanolamine, pH 8.5. Three 10-second pulses of 50 mM Sodium hydroxide were then made to remove any unbound ligand. Reference cells were modified using amine coupling chemistry, omitting ligand injection.\nIncrease in signal (RU) is proportional to an increase in binding events between the analyte and ligand surface. The injection was then stopped, and dissociation was measured. The resulting sensorgram has reference surface and blank injection subtracted prior to curve fitting. Measured association (ka, 1/M^s−1) and dissociation (kd, s^−1) were fit to a 1:1 binding model to calculate an equilibrium dissociation constant, KD(M) for each analyte. Equilibrium binding constants (KD) and binding inhibition constants (Ki) estimated from surface plasmon resonance (SPR) or DELFIA® binding assays for exemplary compounds as set forth in Table 2A.\nIn this example, affinity for mouse Nectin-4 (FIG. 3A) and human Nectin-4 (FIG. 3B) were measured using a 1:1 binding model at twenty-five degrees Celsius. In both of FIGS. 3A and 3B, lines on graphs were labeled from top to bottom, beginning with letter a, and the corresponding concentration was noted to the right of the figure."}, "mouse Nectin-4": {"target": "T2, mouse Nectin-4 (Mus musculus, UniProt Q8R007)", "T2 sequence (Q8R007 31-508)": "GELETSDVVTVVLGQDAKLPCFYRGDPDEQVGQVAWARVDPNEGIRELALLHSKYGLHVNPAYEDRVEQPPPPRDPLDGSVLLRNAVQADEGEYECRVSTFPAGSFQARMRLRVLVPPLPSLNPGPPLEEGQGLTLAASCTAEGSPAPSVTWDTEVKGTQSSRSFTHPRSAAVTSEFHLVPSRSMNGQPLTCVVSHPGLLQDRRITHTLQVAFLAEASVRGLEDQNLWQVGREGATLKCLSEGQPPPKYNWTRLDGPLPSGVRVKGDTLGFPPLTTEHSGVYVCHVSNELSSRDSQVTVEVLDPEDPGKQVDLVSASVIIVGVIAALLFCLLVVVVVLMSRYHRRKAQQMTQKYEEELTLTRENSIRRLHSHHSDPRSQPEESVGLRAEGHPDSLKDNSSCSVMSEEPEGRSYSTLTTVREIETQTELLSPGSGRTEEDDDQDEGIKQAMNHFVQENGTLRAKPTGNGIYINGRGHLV", "assay": "Surface plasmon resonance (Biacore T200) binding to mouse Nectin-4", "settings": "1:1 binding model, twenty-five degrees Celsius", "description": "as §1, §2\nSurface plasmon resonance (SPR) analyses were performed using Biacore T200 (GE Healthcare). Target protein (“ligand”) was immobilized to a CM5 Series S sensor chip (Cytiva) using amine-coupling chemistry. Running buffer was 0.05% Surfactant P20 in HEPES buffered saline (HBS-P), pH 7.4 (Cytiva). Immobilization was performed at 25° C. Carboxyl groups in each flow cell were activated using a 1:1 mixture of 0.4 M 1-ethyl-3-(3-dimethylaminopropyl)-carbodiimide in water (EDC) and 0.1 M N-hydroxysuccinimide in water (NHS) for 7 minutes. The ligand was prepared in 10 mM Sodium acetate pH 5 (Cytiva). Pulsatile injections were made to target a specific immobilization level. Any remaining amine-reactive esters on the chip surface were blocked with a 7-minute injection of 1 M ethanolamine, pH 8.5. […]\nIncrease in signal (RU) is proportional to an increase in binding events between the analyte and ligand surface. The injection was then stopped, and dissociation was measured. […] Measured association (ka, 1/M^s−1) and dissociation (kd, s^−1) were fit to a 1:1 binding model to calculate an equilibrium dissociation constant, KD(M) for each analyte. […]\nIn this example, affinity for mouse Nectin-4 (FIG. 3A) and human Nectin-4 (FIG. 3B) were measured using a 1:1 binding model at twenty-five degrees Celsius. […]"}, "in vivo": {"assay": "in vivo", "settings": "female, athymic nude, mouse, tumor (HT1376 xenograft), total radioactivity", "description": "In-111 labeling of miniproteins with MES buffer: In-111 was neutralized with 0.5 M MES buffer pH 5.5. This mixture was added to miniproteins prepared at 2 mg/mL in water with an equivalent amount of 0.5 M MES buffer pH 5.5, in a 1.5 mL Eppendorf vial and heated at 37° C. for 60 minutes. After the reaction, an HPLC sample was taken and an equivalent amount of 10 mM DTPA in 0.1 M ammonium acetate pH 5 was added and incubated for at least 15 minutes. The sample was then used for HPLC analysis.\nIn-111 labeling of miniproteins with Sodium Acetate buffer: In-111 was neutralized with 0.1 M sodium acetate buffer pH 5. […] After the reaction, an HPLC sample was taken and an equivalent amount of 10 mM DTPA in 0.1 M ammonium acetate pH 5 was added and incubated for at least 15 minutes. The sample was then used for HPLC analysis.\nPurification of ^111In-miniproteins: Purification was done on two of the crude reaction mixtures mixed with 10 mM DTPA in 0.1 M ammonium acetate pH 5 and incubated for 15 minutes. A 3 kDa 0.5 mL Amicon filter was used for purification and the filter was spun at 15,000 RCF for 9 minutes. Saline was used as a formulation buffer.\nAnimals: Female athymic nude mice (6-8 weeks of age) were purchased from Charles River Laboratories and housed according to IACUC guidelines with ad libitum feeding. Biodistribution imaging experiments were performed on both null and tumor bearing athymic nude mice. Tumor xenograft models were generated by inoculating mice subcutaneously with 3×10^6 HT1376 cells, in 200 μL (50:50 PBS/Matrigel) in the right shoulder or right flank. Tumors were monitored for 14 days prior to SPECT/CT imaging dates. Mice with tumor volumes between 150 mm^3 and 250 mm^3 were selected for study inclusion and randomized to treatment arms. An excess of 60% of required imaging study mice were inoculated with tumor cells to ensure enough mice with appropriate tumor ranges were generated.\nAnimal grouping and Treatment: Animals were monitored for body weight bi-weekly and at the time of experimentation, grouped into groups of n=3. Animals were administered test-agents (TAs) that were prepared as described above. Animals received one of two standard injected dose activates and mass dose injections, depending at which site imaging studies were performed. • Site-1: 350 μCi of activity (^111In) at approximately […] peptide per mouse. • Site-2: 30MBq ([…]) of activity (^111In) at approximately 1 nM ([…]) of total peptide per mouse.\nAnimal imaging: Animals were sedated using isoflurane gas and imaged in a 3 bed hotel using a NanoScan SPECT/CT scanner. Animals were imaged at timepoints between 10 mins and 72 h post-dosing via SPECT scan, followed by CT scans. Details of the image process and analysis are described in Example 11.\nImage Processing: Images were generated as SPECT/CT pair with the SPECT reported in units of activity. Namely, the values assigned to the voxels (volume elements) comprising the SPECT images were in units of μCi. SPECT images were co-registered to the CT scan for anatomical reference, resampled to 0.2 mm^3 voxels, masked to remove the CT background, and cropped to a uniform size prior to analysis.\nEstimating tissue uptake: Regions of interest (ROIs) were defined using VivoQuant software. The kidneys and bladder were segmented as fixed volume phantoms and registered using the CT for anatomical reference. Two fixed volume spheres were used to create the liver ROI. Spheres were placed at appropriate anatomical locations based on CT and SPECT signal. Group and individual master spreadsheets were generated which included the volume, activity, and concentration (Activity/Volume) at each time point for each ROI generated. Additionally, plots of activity were generated using Matplotlib based python tools to highlight trends in the data."}},
  "note": "Bridge positions count the residues as written; N and C are the ends. Ends that are not written are not given here. * marks the point of attachment. DOTA = O=C(O)CN1CCN(CC(=O)O)CCN(CC(=O)*)CCN(CC(=O)O)CC1; PEG4 = NCCOCCOCCOCCOCCC(=O)O",
  "data": [
    {"substance": "{DOTA-PEG4}-CEYDEEFFAGLKRLRGGDICYYIKKKFDKVPDLCIEEILDKLGC-OH (disulfide 1-34, 20-44) [Compound C91]", "values": [
      {"measurement": "kd (dissociation)", "setting": "human Nectin-4", "value": 0.02966, "unit": "s⁻¹"},
      {"measurement": "kd (dissociation)", "setting": "mouse Nectin-4", "value": 0.02817, "unit": "s⁻¹"}
    ]},
    {"substance": "{DOTA-PEG4}-CEYDEQFFTALARLRGGDICYYIQEQFATVPGLCIEEILDQLGCS (disulfide 1-34, 20-44) [Compound C129]", "values": [
      {"measurement": "tissue uptake at 4 h", "setting": "in vivo", "value": 1.77, "unit": "%ID/g"}
    ]},
    {"substance": "{DOTA-PEG4}-CEYDEEFFAGLKRLRGGDICYYIKKKFDKVPDLCIEEILDKLGC (disulfide 1-34, 20-44) [Compound C12]", "values": [
      {"measurement": "kd (dissociation)", "setting": "human Nectin-4", "value": 0.01697, "unit": "s⁻¹"},
      {"measurement": "Kd", "setting": "human Nectin-4; read-out: KD", "value": 10.5, "unit": "nM"},
      {"measurement": "kd (dissociation)", "setting": "mouse Nectin-4", "value": 0.02625, "unit": "s⁻¹"}
    ]},
    {"substance": "{DOTA-PEG4}-CEYDEEFFTALSRLRGGDICYYIQQAFQYLPGLCIEEILDNLGCS (disulfide 1-34, 20-44) [Compound C133]", "values": [
      {"measurement": "tissue uptake at 4 h", "setting": "in vivo", "value": 1.29, "unit": "%ID/g"}
    ]},
    {"substance": "{DOTA-PEG4}-CEYDEQFFTALKALRGGDICYYIQASFNYLPDLCIEEILDNLGCS (disulfide 1-34, 20-44) [Compound C113]", "values": [
      {"measurement": "tissue uptake at 4 h", "setting": "in vivo", "value": 1.65, "unit": "%ID/g"}
    ]},
    {"substance": "{DOTA-PEG4}-CEYDEEFFTALKRLRGGDICYYIQKAFQYLPGLCIEEILDNLGCS (disulfide 1-34, 20-44) [Compound C121]", "values": [
      {"measurement": "tissue uptake at 4 h", "setting": "in vivo", "value": 2.03, "unit": "%ID/g"}
    ]},
    {"substance": "{DOTA-PEG4}-CEYDEQFFTALSSLRGGDICYYIQEQFANVPGICIEEILDNLGCS (disulfide 1-34, 20-44) [Compound C137]", "values": [
      {"measurement": "tissue uptake at 4 h", "setting": "in vivo", "value": 1.12, "unit": "%ID/g"}
    ]}
  ]
}
